Test results from patent publication US20250276031A1, “PRODRUGS AS SELECTIVE ANTIBIOTICS AGAINST COLIBACTIN-PRODUCING E. COLI” (New York University in Abu Dhabi Corporation, priority 2024, published 2025).

How the values were obtained:
[1] = tested on: Escherichia coli ribosome; conditions: comparison value, no own experiment described; read-out: IC50 of chloramphenicol given for comparison; cited from earlier work
[2] = tested on: E. coli expressing the ClbP protease; assay: Growth curves with PXCNA; format: cell-based; conditions: crude extract, 10, 25, 50 mg/L; IPTG induced; 22° C., 24 hrs, OD600
Procedure: Growth curves made using PXCNA. Briefly, a single colony from E. coli strain C41(DE3)_ΔacrABpET-29b clbP strain was inoculated into LB medium supplemented with kanamycin (50 μg/ml). This culture was grown overnight at 37° C. while shaking at 200 RPM. 1:100 dilution of overnight culture into fresh LB medium supplemented with kanamycin (50 μg/ml) was performed. Samples were induced with IPTG (0.5 mM). A crude extract of PXCNA prepared in methanol (1 mg/ml). The final concentration in samples was 50 mg/L, 25 mg/L and 10 mg/L. Samples were incubated at 22° C. for 24 hrs and OD600 was measured using TecanSpark.

[3] = tested on: E. coli C41 DE3 pet29b_clbP pSEVA631_mGFP and E. coli C41 DE3 pet29b pSEVA_mScarlet-i; assay: Co-culture competition assay with PXCNA (mGFP / mScarlet-i fluorescence, OD600); format: cell-based
Procedure: PXCNA activity was measured via fluorescence (see FIGS. 18 and 19).
A co-culture assay was performed. Overnight cultures of E. coli C41 DE3 pet29b_cIbP pSEVA631_mGFP and E. coli C41 DE3 pet29b pSEVA_mScarlet-i were prepared separately each from a single colony. Then 1:100 dilution of each culture into the same LB media well supplemented with kanamycin (50 μg/ml) and gentamycin (15 μg/ml) was performed. […] Samples were fed with PXCNA with a final concentration of 25 mg/L.

Structure (SMILES)	IC50 [1]	selective killing of ClbP expressing E. coli [2]	mGFP and mScarlet-i fluorescence in co-culture ([3]; PXCNA 25 mg/L, vanillic acid, with or without IPTG)	OD600 growth of E. coli C41 DE3 pet29b_clbP pSEVA631_mGFP ([3]; only vanillic acid and PXCNA added, no IPTG)
O=C(N[C@H](CO)[C@H](O)c1ccc([N+](=O)[O-])cc1)C(Cl)Cl [chloramphenicol]	2800 nM			
CC(C)CCCC(=O)N[C@H](CC(N)=O)C(=O)N[C@@H](CCCN=C(N)N)[C@H](O)[C@H](O)C(=O)N[C@@H](CC(C)C)[C@@H]1Cc2cccc(O)c2C(=O)O1 [PXCNA, prexenocoumacin]		kills selectively E. coli expressing the ClbP protease	low level of fluorescence observed for both	growth did not appear inhibited
